From US20080075677A1, “Antioxidant Complex and a Cosmetic and Pharmaceutical Composition Comprising Said Complex” (priority 2004, published 2008)

Test: DPPH free-radical test of antioxidant potential
Format: biochemical
Source text: Objective: analyzing the antioxidant potential of the complex of the present invention in comparison with other known antioxidant system compositions. A solution of 0.004% of DPPH (diphenyl […] hydrazyl) in ethanol was used. The action of DPPH on ethanol generates free radicals, forming colorful aducts, which are spectrophotometrically detected. Further, a solution of BHT in ethanol was used and its solutions described in the table below. Tubes with the DPPH solution and the compositions of the above products were prepared.

## O=C1O[C@H]([C@@H](O)CO)C(O)=C1O [vitamin C, ascorbic acid]
At determined concentrations of vitamin C
  effect of vitamin C on the potential of the antioxidant complex at determined concentrations: causes reduction of said potential
Vitamin C added to the antioxidant complex composition
  effect of the presence of vitamin C on the potential of the antioxidant complex: does not improve the potential
